Measurements reported in patent US20220098196A1, “TRAPPING-FREE PARP INHIBITORS” (The Board of Regents of the University of Texas System, priority 2019, published 2022).
Where a SMILES comes first, the peptide text is derived from it. The star is where a group is joined. Cbz = O=C(OCc1ccccc1)*

Legend:
PARP1 [1] = molecular target: T1, PARP1 (Homo sapiens, UniProt P09874); test: PARP1 degradation in VHL-proficient (BT-549, PC-3) and VHL-deficient (786-O) cells (immunoblotting); format: cell-based; design: host or cells: MDA-MB-468; BT-549; PC-3; 786-O; conditions: PC-3 cells, VHL-Rucaparib 10 μM plus MG-132 1 μM, 24 hours
T1 sequence (P09874 whole entry): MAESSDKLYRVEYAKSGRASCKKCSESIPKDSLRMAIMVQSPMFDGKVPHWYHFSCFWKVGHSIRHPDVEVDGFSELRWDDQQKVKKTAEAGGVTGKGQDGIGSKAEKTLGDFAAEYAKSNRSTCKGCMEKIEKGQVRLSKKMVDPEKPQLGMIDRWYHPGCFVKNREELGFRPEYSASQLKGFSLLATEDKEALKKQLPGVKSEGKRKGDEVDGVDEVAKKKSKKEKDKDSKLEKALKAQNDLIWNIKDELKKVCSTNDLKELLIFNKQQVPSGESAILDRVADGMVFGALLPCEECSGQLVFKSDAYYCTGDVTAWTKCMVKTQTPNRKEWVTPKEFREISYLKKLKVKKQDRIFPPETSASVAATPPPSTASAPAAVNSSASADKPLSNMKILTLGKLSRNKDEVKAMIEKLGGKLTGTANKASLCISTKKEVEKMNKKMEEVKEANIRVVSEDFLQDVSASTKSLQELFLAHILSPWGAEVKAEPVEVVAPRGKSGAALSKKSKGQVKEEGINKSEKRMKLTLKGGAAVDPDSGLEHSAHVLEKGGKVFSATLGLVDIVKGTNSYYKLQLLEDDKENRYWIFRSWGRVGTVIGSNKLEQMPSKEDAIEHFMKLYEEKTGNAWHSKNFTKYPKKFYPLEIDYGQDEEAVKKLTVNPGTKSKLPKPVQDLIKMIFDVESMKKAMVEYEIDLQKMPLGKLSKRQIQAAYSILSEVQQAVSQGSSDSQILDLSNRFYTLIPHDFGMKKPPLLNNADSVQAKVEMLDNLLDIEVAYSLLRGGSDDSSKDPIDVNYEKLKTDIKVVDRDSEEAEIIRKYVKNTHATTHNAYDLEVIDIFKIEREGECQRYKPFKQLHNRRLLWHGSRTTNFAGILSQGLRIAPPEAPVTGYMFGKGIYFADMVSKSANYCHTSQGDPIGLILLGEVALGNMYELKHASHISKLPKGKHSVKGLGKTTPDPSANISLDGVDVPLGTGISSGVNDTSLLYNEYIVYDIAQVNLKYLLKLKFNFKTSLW
Protocol: (§1) Immunoblotting. Cells were washed once with cold PBS and lysed with the SDS lysis buffer (1% SDS, 10 mM HEPES pH 7.0, 2 mM MgCl2, 500 U universal nuclease). Protein concentrations were determined by the BCA assay kit (Thermo Fisher Scientific). A total of 20 μg proteins (40 μg proteins for PAR immunoblotting experiments) were loaded onto the SDS-PAGE gel and were then transferred to a nitrocellulose membrane. Nitrocellulose membranes were then blocked with the TBST buffer containing 5% milk (Bio-Rad). Membranes were incubated with the primary antibodies overnight at 4° C. and the secondary antibodies for 1 hour at room temperature (RT). The blots were developed using enhanced chemiluminescence and were exposed on autoradiograph films.

PARP1 [2] = molecular target: T1, PARP1; test: PARP1 degradation in HeLa cells (immunoblotting); format: cell-based; design: host or cells: HeLa; conditions: 24 hours; for PARP1 degradation: increasing concentrations
Protocol: as §1

PARP1 [3] = molecular target: T1, PARP1; test: PARP1 trapping in HeLa cells (subcellular fractionation, chromatin-bound fraction); format: cell-based; design: host or cells: HeLa; conditions: 5 μM for all compounds, MMS 0.01%
Protocol: Subcellular Proteins Extraction. […] The cytosolic proteins were isolated by incubating the cells with the CEB buffer for 10 min at 4° C., and centrifuged at 500 g for 5 min. The membrane proteins were isolated by incubating the pellet from previous step with the MEB buffer for 10 min at 4° C., and centrifuged at 3000 g for 5 min. The soluble nuclear proteins were isolated by incubating the pellet from previous step with the NEB buffer for 30 min at 4° C., and centrifuged at 5000 g for 5 min. The chromatin bound proteins were isolated by incubating the pellet from previous step with the NEB buffer supplemented with nuclease for 15 min at RT and centrifuged at 16000 g for 5 min. Protein concentrations were determined by the BCA assay kit.

PARP1 [4] = molecular target: T1, PARP1; test: In Vitro PARP1 Activity Assay (PARP universal chemiluminescent assay kit); format: biochemical; conditions: in vitro
Protocol: In Vitro PARP1 Activity Assay. […] Briefly, the histone-coated strip wells were hydrated with the assay buffer for 30 min. The various compounds were added and were incubated with the PARP enzyme for 10 min. The reaction cocktail containing biotinylated NAD^+ was then added into the system, which was incubated for 1 hour to activate PARP1. After the reaction, the wells were washed twice with 0.1% Triton X-100/PBS and twice with PBS. The wells were incubated with Strep-HRP for another hour and were washed again as described above. PeroxyGlow reagents were mixed and added into the strip wells, and the biotin signal on coated histone was immediately measured with chemiluminescence on a Synergy microplate reader (Bio-Tek). The well without PARP1, and the well with PARP1 only was used as the negative (0%) and positive (100%) control, respectively.

| SMILES | potency in PARP1 trapping (rank order) (PARP1 [3]) | biochemical (catalytic) inhibition of PARP1 (PARP1 [4]) | PARP1 degradation (PARP1 [2]) | further results |
| --- | --- | --- | --- | --- |
| CC(C)C[C@@H](C=O)NC(=O)[C@H](CC(C)C)NC(=O)[C@H](CC(C)C)NC(=O)OCc1ccccc1 [MG132, reference compound] (Cbz-Leu-Leu-Leu-aldehyde) | – | – | – | effect on VHL-Rucaparib-induced PARP1 degradation (PARP1 [1]): could be rescued by MG-132 treatment; effect on iRucaparib-induced PARP1 degradation (PARP1 [2]; iRucaparib 5 μM plus MG132 (1 μM), Rucaparib (1 μM) or increasing pomalidomide): completely blocked |
| NC(=O)c1cccc2cn(-c3ccc([C@@H]4CCCNC4)cc3)nc12 [Niraparib] | BMN673>Niraparib>Olaparib>Rucaparib>Veliparib | – | – | – |
| CN(CCCCc1cn(CCOCCNc2cccc3c2C(=O)N(C2CCC(=O)NC2=O)C3=O)nn1)Cc1ccc(-c2[nH]c3cc(F)cc4c3c2CCNC4=O)cc1 (stereo not drawn) [PEG1, Rucaparib-Triazole-PEG1-Pomalidomide] | – | maintained catalytic inhibitory activity against PARP1 | not able to degrade PARP1 | – |
| CN(CCCCc1cn(CCOCCOCCNc2cccc3c2C(=O)N(C2CCC(=O)NC2=O)C3=O)nn1)Cc1ccc(-c2[nH]c3cc(F)cc4c3c2CCNC4=O)cc1 (stereo not drawn) [PEG2, Rucaparib-Triazole-PEG2-Pomalidomide] | – | maintained catalytic inhibitory activity against PARP1 | not able to degrade PARP1 | – |
| CN(CCCCc1cn(CCOCCOCCOCCOCCNc2cccc3c2C(=O)N(C2CCC(=O)NC2=O)C3=O)nn1)Cc1ccc(-c2[nH]c3cc(F)cc4c3c2CCNC4=O)cc1 (stereo not drawn) [PEG4 PROTAC, Rucaparib-Triazole-PEG4-Pomalidomide] | – | – | able to degrade PARP1 as efficiently as iRucaparib | – |
| C[C@]1(c2nc3c(C(N)=O)cccc3[nH]2)CCCN1 [Veliparib] | BMN673>Niraparib>Olaparib>Rucaparib>Veliparib | – | – | – |
